This note sets out measurements from ChEMBL document CHEMBL5291721, “A preclinical secondary pharmacology resource illuminates target-adverse drug reaction associations of marketed drugs” (Nat Commun, 2023).

The target of assay [1] is T1, Peroxisome proliferator-activated receptor gamma (Homo sapiens, UniProt P37231).
T1 sequence (P37231 whole entry): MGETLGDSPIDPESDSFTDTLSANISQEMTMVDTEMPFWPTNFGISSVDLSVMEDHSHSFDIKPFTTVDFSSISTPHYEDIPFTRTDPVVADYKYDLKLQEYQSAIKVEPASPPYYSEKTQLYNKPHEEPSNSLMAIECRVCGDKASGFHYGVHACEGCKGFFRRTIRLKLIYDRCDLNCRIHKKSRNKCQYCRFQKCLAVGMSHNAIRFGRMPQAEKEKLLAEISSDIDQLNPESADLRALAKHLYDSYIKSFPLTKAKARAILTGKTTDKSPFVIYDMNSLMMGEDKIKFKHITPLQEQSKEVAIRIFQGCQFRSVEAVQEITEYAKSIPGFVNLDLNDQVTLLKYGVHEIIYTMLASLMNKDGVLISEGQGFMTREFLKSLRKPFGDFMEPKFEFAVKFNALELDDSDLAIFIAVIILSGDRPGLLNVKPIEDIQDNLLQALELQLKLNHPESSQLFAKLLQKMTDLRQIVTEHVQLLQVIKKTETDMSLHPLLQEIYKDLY
Format: functional.

For another assay, the target named is Cannabinoid receptor 1 (Homo sapiens, UniProt P21554). Format: functional.
Assay [2] concerns the target 5-hydroxytryptamine receptor 6 (Homo sapiens, UniProt P50406).
Assay [3] has as its target Gamma-aminobutyric acid type B receptor subunit 1 (Homo sapiens, UniProt Q9UBS5).
The target of assay [4] is T2, Muscarinic acetylcholine receptor M1 (Homo sapiens, UniProt P11229).
T2 sequence (P11229 whole entry): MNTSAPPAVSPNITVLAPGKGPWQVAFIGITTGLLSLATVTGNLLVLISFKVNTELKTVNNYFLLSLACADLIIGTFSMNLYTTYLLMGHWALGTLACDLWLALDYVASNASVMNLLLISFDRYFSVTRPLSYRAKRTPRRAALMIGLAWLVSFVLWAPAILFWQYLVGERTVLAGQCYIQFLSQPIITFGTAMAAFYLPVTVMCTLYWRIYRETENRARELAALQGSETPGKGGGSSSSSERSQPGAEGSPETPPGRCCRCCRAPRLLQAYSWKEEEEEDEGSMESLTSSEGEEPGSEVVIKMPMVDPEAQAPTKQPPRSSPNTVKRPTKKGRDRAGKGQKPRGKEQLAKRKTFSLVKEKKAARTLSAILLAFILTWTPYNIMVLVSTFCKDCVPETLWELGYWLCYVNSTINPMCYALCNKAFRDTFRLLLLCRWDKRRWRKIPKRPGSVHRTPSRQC
Format: functional, cell-based.

For assay [5], the target named is Vascular endothelial growth factor receptor 2 (Homo sapiens, UniProt P35968). The format is functional.
In assay [6] the target is T3, Alpha-2A adrenergic receptor (Homo sapiens, UniProt P08913).
T3 sequence (P08913 whole entry): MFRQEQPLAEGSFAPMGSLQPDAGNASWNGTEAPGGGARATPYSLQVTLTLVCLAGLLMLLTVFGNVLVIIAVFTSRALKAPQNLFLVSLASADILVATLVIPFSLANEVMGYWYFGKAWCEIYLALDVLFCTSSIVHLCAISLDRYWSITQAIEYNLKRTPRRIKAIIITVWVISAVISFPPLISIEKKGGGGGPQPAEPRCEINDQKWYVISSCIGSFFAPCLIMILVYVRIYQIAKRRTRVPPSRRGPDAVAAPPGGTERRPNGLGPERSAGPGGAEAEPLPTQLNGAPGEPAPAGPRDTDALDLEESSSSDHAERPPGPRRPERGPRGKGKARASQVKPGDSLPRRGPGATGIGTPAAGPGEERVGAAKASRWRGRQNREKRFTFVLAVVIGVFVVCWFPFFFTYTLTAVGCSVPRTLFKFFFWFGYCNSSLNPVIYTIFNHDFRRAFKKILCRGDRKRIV

The target of assay [7] is T2, Muscarinic acetylcholine receptor M1. Format: functional, cell-based. This is another data set of the same source.
In assay [8] the target is T4, Prostaglandin G/H synthase 1 (Homo sapiens, UniProt P23219). Format: functional.
Assay [9] has as its target T5, Thromboxane A2 receptor (Homo sapiens, UniProt P21731).
T5 sequence (P21731 whole entry): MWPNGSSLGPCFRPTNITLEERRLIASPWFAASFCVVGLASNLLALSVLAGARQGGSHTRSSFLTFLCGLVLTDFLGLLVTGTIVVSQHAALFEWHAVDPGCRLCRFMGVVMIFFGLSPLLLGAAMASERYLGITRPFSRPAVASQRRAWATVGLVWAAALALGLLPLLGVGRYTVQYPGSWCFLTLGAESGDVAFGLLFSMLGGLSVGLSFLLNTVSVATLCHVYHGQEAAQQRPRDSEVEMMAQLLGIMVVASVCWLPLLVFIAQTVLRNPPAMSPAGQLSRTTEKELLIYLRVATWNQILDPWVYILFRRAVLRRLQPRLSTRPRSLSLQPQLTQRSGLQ
The format is functional, cell-based.

Assay [10] addresses T4, Prostaglandin G/H synthase 1. Format: functional. The source holds these as a separate data set.
The target of the next assay is D(3) dopamine receptor (Homo sapiens, UniProt P35462).
The target of a further assay is D(1A) dopamine receptor (Homo sapiens, UniProt P21728). Format: functional, cell-based.
Assay [11] concerns the target Hydroxycarboxylic acid receptor 2 (Homo sapiens, UniProt Q8TDS4).
In assay [12] the target is Gamma-aminobutyric acid receptor subunit alpha-1/alpha-2/beta-2/gamma-2 (Homo sapiens, UniProt P14867+P47870+P18507+P47869). The format is functional, cell-based.
The target in assay [13] is T5, Thromboxane A2 receptor. Format: functional, cell-based. This is another data set of the same source.
Assay [14] addresses Voltage-dependent L-type calcium channel subunit alpha-1C (Homo sapiens, UniProt Q13936). Format: functional, cell-based.
Note: assay procedure not described here.

T4 sequence (P23219 whole entry): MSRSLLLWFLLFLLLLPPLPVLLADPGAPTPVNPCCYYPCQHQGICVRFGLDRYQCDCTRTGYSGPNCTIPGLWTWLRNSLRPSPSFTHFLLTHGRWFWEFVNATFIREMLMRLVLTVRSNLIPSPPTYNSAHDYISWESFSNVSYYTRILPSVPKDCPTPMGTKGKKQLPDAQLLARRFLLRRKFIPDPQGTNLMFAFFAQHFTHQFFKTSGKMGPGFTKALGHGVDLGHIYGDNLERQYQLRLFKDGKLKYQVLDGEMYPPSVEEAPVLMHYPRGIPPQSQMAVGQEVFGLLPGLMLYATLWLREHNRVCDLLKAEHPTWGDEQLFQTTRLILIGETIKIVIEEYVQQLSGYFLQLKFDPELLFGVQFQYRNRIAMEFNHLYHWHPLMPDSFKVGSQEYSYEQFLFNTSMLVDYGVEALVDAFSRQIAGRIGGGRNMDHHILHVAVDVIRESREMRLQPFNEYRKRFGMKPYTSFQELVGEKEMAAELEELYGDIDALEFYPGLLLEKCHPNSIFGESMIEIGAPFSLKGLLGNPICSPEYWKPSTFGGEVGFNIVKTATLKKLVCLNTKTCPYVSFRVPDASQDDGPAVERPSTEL
Sequence of Cannabinoid receptor 1 (P21554 whole entry): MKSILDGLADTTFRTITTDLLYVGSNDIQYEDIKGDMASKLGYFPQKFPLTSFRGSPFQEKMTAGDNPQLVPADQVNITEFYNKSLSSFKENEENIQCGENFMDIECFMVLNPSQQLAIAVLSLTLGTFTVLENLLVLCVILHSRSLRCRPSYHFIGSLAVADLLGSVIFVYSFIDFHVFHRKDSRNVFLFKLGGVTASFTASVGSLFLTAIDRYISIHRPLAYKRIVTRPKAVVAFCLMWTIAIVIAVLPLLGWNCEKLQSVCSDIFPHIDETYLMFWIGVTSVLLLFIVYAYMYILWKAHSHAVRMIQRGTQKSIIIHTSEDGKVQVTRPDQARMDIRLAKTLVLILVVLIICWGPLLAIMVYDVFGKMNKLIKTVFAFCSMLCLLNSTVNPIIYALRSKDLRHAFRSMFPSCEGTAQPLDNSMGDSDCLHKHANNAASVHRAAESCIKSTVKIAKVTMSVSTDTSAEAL
Sequence of D(3) dopamine receptor (P35462 whole entry): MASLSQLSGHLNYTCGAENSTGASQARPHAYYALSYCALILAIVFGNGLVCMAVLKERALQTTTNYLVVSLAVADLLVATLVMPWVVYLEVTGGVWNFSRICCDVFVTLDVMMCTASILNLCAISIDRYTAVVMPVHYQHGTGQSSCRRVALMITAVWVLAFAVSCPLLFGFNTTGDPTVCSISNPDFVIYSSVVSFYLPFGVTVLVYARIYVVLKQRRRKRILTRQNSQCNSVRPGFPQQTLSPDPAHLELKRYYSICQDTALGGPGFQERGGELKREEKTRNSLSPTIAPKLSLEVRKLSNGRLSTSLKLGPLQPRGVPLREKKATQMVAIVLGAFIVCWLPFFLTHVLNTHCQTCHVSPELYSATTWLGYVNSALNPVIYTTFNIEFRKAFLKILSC
Sequence of Vascular endothelial growth factor receptor 2 (P35968 whole entry): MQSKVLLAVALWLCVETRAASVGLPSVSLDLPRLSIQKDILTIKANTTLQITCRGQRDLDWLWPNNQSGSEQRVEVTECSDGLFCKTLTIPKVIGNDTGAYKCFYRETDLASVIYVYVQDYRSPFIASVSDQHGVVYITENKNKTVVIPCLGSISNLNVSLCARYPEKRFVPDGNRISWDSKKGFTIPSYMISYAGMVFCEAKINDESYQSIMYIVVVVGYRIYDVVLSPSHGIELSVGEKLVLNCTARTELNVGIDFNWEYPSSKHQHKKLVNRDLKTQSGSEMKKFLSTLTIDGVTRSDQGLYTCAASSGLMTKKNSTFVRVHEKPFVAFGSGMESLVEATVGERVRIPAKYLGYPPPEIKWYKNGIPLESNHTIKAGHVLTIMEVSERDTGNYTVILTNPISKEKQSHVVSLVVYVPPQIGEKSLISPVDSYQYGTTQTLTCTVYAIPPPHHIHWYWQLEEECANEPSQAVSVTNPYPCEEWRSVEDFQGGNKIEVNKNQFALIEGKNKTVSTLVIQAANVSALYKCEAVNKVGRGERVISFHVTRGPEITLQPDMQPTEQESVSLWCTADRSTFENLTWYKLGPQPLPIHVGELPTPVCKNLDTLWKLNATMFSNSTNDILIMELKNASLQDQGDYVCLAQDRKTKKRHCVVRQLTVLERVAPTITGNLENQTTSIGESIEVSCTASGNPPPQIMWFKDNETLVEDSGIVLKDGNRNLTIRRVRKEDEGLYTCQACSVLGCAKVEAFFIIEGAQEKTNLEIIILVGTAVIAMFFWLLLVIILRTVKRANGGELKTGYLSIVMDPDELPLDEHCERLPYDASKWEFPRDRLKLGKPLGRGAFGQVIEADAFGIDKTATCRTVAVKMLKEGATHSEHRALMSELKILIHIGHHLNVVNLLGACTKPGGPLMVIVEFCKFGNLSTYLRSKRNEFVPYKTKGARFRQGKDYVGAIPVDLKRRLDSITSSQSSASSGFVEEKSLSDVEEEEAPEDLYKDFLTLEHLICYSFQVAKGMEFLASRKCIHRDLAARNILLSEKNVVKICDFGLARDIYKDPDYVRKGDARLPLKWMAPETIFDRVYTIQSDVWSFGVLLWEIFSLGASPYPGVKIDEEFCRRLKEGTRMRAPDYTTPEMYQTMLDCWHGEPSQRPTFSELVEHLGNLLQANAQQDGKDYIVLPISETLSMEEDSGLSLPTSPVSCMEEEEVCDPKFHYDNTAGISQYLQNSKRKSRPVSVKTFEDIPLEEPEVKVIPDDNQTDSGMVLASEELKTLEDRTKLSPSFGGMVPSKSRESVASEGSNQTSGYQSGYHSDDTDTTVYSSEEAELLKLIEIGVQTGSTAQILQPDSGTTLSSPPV
Sequence of Hydroxycarboxylic acid receptor 2 (Q8TDS4 whole entry): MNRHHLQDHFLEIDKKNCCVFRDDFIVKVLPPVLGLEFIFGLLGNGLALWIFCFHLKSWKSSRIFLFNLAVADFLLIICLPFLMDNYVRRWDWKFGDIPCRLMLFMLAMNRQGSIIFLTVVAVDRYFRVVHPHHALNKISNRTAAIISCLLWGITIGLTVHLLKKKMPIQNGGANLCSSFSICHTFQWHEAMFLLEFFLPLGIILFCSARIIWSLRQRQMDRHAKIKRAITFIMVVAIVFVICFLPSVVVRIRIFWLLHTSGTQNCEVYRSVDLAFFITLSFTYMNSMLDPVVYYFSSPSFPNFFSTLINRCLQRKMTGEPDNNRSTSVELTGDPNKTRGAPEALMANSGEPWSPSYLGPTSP
Sequence of 5-hydroxytryptamine receptor 6 (P50406 whole entry): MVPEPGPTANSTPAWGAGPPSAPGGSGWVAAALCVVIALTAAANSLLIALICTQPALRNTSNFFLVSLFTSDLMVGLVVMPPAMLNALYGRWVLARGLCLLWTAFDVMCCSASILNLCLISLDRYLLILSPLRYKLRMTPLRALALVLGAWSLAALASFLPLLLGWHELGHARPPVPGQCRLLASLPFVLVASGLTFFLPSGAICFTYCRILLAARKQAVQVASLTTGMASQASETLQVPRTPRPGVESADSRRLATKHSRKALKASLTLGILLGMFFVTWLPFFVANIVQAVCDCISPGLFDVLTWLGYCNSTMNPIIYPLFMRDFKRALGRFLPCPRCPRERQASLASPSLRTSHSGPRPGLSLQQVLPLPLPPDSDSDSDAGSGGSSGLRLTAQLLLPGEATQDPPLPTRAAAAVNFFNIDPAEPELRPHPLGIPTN
Sequence of Gamma-aminobutyric acid type B receptor subunit 1 (Q9UBS5 whole entry): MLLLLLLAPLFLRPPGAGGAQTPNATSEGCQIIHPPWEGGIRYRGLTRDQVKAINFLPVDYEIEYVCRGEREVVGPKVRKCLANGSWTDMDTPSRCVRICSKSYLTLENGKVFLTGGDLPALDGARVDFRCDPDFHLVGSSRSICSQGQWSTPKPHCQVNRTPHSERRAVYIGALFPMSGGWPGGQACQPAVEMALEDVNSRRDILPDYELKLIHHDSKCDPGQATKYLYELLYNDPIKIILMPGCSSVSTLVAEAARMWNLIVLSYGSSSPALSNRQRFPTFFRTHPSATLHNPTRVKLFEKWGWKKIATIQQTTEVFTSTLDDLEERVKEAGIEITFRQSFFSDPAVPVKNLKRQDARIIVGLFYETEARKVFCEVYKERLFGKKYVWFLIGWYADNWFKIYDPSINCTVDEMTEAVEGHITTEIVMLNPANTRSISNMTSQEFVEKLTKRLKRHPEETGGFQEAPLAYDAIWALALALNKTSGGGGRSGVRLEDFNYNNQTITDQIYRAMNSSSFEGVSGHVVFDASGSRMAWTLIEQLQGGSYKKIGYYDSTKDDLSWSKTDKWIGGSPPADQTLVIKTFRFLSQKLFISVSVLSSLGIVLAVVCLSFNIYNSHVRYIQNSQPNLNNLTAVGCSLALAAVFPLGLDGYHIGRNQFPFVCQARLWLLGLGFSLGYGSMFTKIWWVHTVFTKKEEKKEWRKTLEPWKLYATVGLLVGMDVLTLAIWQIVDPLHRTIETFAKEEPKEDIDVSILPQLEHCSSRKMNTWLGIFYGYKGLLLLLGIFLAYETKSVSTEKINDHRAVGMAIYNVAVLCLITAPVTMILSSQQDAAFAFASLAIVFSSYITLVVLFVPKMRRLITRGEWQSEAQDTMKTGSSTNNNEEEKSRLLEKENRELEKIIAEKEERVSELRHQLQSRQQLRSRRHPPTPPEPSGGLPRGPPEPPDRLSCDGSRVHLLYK
Sequence of D(1A) dopamine receptor (P21728 whole entry): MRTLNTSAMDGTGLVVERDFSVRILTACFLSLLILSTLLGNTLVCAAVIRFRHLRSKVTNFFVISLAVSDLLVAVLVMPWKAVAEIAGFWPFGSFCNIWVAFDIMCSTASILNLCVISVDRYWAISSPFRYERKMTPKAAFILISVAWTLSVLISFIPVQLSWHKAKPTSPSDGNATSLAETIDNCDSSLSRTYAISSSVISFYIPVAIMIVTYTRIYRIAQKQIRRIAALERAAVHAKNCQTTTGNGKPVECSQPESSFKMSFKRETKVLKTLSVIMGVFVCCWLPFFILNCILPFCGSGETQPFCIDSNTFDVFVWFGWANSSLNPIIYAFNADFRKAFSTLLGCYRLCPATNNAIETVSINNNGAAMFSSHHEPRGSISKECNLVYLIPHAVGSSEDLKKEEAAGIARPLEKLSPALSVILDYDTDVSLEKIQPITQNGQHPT

In assay [1], `Brc1c(NC2=NCCN2)ccc2nccnc12` [BRIMONIDINE] showed an AC50 above 30 µM.
Regarding `Cc1c(OCC(F)(F)F)ccnc1C[S+]([O-])c1nc2ccccc2[nH]1` (configuration not stated) [LANSOPRAZOLE], the AC50 (on Cannabinoid receptor 1; in assay [2]; in assay [3]) was above 10 µM throughout.
Regarding `CO[C@]12C[C@@H](COC(=O)c3cncc(Br)c3)CN(C)[C@@H]1Cc1cn(C)c3cccc2c13` [NICERGOLINE], the AC50 is 1860 nM in assay [4]; above 30 µM in assay [5]; 42.6 nM in assay [6]; above 30 µM in [7]; above 30 µM in [8]; 7.6 µM on Thromboxane A2 receptor [9]. Besides, the figures for the AC50 (in assay [10]; on D(3) dopamine receptor) were above 30 µM and 641 nM, respectively.
Consider `Cc1cc(C(C)(C)C)c(O)c(C)c1CC1=NCCN1` [OXYMETAZOLINE], for which, at D(1A) dopamine receptor, the AC50 was above 30 µM.
Compound `COc1cccc(C2(O)CCCCC2CN(C)C)c1` (configuration not stated) [TRAMADOL] registered an AC50 in [11] above 10 µM.
Consider THIMEROSAL, for which the half-maximal activity concentration (AC50) is above 30 µM in assay [12], above 10 µM at Thromboxane A2 receptor [13] and above 50 µM in assay [14].
